From patent US20050187221A1, “Method of treating ischemia reperfusion injury” (Japan Tobacco Inc., priority 2003, published 2005)
Where a name gives a salt, the structure may show the parent alone.

Key:
IL-1β = assay: Tissue level of IL-1β in the myocardium after reperfusion (ELISA); format: ex vivo (isolated Langendorff-perfused heart after in vivo dosing), Sprague-Dawley rats; conditions: 10 mg/kg intraperitoneally; after 60 min reperfusion; mean±SEM; C group 3700±700, not statistically significantly different
Experimental: (§1) Sixteen Sprague-Dawley rats (300 g, male) were divided into a control group (“C group,” n=8) and a group administered (−)-ethyl N-{3,5-dichloro-2-hydroxy-4-[2-(4-methylpiperazin-1-yl)ethoxy]benzoyl}-L-phenylalaninate dihydrochloride (“J group,” n=8). All rats were anesthesized by intraperitoneal injection of sodium pentobarbital (50 mg/kg), and either (a) 0.5 mL of saline (C group) or (b) 10 mg/kg of (−)-ethyl N-{3,5-dichloro-2-hydroxy-4-[2-(4-methylpiperazin-1-yl)ethoxy]benzoyl}-L-phenylalaninate dihydrochloride dissolved in 5% mannitol (J group) was administered intraperitoneally to the rats. Anticoagulation was ensured by the intraperitoneal administration of 200 USP units of heparin. […]
(§2) After stabilization, heart rate (HR), left ventricular developed pressure (LVDP), maximum dP/dt (maximum dP/dt), and coronary flow (CF) were measured with LV diastolic pressure stabilized at 10 mm Hg. […] HR, LVDP, maximum dP/dt, and CF were continuously measured after reperfusion and analyzed using a Polygraph System (Nihon Kouden, Japan).
(§3) After 60 minutes of reperfusion, frozen sections of the hearts were made and stored at −80° C. for further assessment. […] The concentrations of tissue inflammatory cytokines were measured using ELISA kits (TNF-α, IL-1β, and IL-6: Biosource International, California; and IL-8: Immuno-Biological Laboratories, Gunma, Japan) according to the manufacturer's recommendation. […]

TNF-α = assay: Tissue level of TNF-α in the myocardium after reperfusion (ELISA); parameters: species or system Sprague-Dawley rats; conditions: 10 mg/kg intraperitoneally; after 60 min reperfusion; mean±SEM; C group 550±80, p<0.05
Experimental: as §1, §2, §3

IL-8 = assay: Tissue level of IL-8 in the myocardium after reperfusion (ELISA); format: ex vivo (isolated Langendorff-perfused heart), Sprague-Dawley rats; conditions: 10 mg/kg intraperitoneally; after 60 min reperfusion; mean±SEM; C group 240±40, p<0.05
Experimental: as §1, §2, §3

[1] = test system: hearts of Sprague-Dawley rats (myocardial ischemia reperfusion injury); assay: Cardiac function of isolated Langendorff-perfused rat hearts after 30 min global ischemia and 60 min reperfusion; format: ex vivo
Experimental: Sixteen Sprague-Dawley rats (300 g, male) were divided into a control group (“C group,” n=8) and a group administered (−)-ethyl N-{3,5-dichloro-2-hydroxy-4-[2-(4-methylpiperazin-1-yl)ethoxy]benzoyl}-L-phenylalaninate dihydrochloride (“J group,” n=8). All rats were anesthesized by intraperitoneal injection of sodium pentobarbital (50 mg/kg), and either (a) 0.5 mL of saline (C group) or (b) 10 mg/kg of (−)-ethyl N-{3,5-dichloro-2-hydroxy-4-[2-(4-methylpiperazin-1-yl)ethoxy]benzoyl}-L-phenylalaninate dihydrochloride dissolved in 5% mannitol (J group) was administered intraperitoneally to the rats. Anticoagulation was ensured by the intraperitoneal administration of 200 USP units of heparin.
Ten minutes after the administration of heparin and either (a) saline (C group) or (b) 10 mg/kg of (−)-ethyl N-{3,5-dichloro-2-hydroxy-4-[2-(4-methylpiperazin-1-yl)ethoxy]benzoyl}-L-phenylalaninate dihydrochloride dissolved in 5% mannitol (J group), the hearts of the rats were excised and perfused with modified Krebs-Henseleit buffer (120.0 mM NaCl, 4.5 mM KCl, 20.0 mM NaHCO3, 1.2 mM KH2PO4, 1.2 MgCl2, 2.5 mM CaCl2, and 10.0 mM glucose: gassed with 95% O2+5% CO2 to obtain a pH of 7.4 at 37° C.) at the pressure equal to 1 m H2O by means of a Langendorff apparatus. A thin-wall latex balloon was inserted into the left ventricle through the left atrium to monitor left ventricular pressure and to control left ventricular volume.
After stabilization, heart rate (HR), left ventricular developed pressure (LVDP), maximum dP/dt (maximum dP/dt), and coronary flow (CF) were measured with LV diastolic pressure stabilized at 10 mm Hg. The hearts were subjected to global ischemia at 37° C. for 30 minutes, followed by 60 minutes of reperfusion. The balloon was deflated during ischemia, and the hearts were not paced during reperfusion. HR, LVDP, maximum dP/dt, and CF were continuously measured after reperfusion and analyzed using a Polygraph System (Nihon Kouden, Japan).
There were significant differences between the two groups, however, following global ischemia and reperfusion. FIGS. 1 and 2 depict the cardiac function (as measured by LVDP and maximum dP/dt) after ischemia reperfusion between the C and J groups. For the following parameters, data are expressed as mean±standard error of the mean (SEM). The difference in the data on functional recoveries were determined with one-way repeated measure ANOVA. The difference in the data on CPK leakage and tissue cytokine concentrations were determined with unpaired Student's t test. A p value of less than 0.05 was considered statistically significant.

IL-6 = assay: Tissue level of IL-6 in the myocardium after reperfusion (ELISA); format: ex vivo (isolated Langendorff-perfused heart, dosed in vivo), Sprague-Dawley rats; conditions: 10 mg/kg intraperitoneally; after 60 min reperfusion; mean±SEM; C group 300±80, p<0.05
Experimental: as §1, §2, §3

[2] = test system: cardiac myocytes (CPK leakage); assay: Creatine phosphokinase (CPK) leakage into the coronary effluent after reperfusion; format: ex vivo (isolated perfused hearts from dosed rats), Sprague-Dawley rats; conditions: 10 mg/kg intraperitoneally; coronary effluent for 60 minutes after reperfusion; mean±SEM; C group 140±61, p<0.05
Experimental: as §1
as §2, with “Japan). […]” for “Japan).”
There were significant differences between the two groups, however, following global ischemia and reperfusion. FIGS. 1 and 2 depict the cardiac function (as measured by LVDP and maximum dP/dt) after ischemia reperfusion between the C and J groups. For the following parameters, data are expressed as mean±standard error of the mean (SEM). […]

Compound: CCOC(=O)[C@H](Cc1ccccc1)NC(=O)c1cc(Cl)c(OCCN2CCN(C)CC2)c(Cl)c1O [(−)-ethyl N-{3,5-dichloro-2-hydroxy-4-[2-(4-methylpiperazin-1-yl)ethoxy]benzoyl}-L-phenylalaninate dihydrochloride]
- tissue level of IL-1β in the myocardium after reperfusion (IL-1β): 2600±200 pg/mg tissue
- tissue level of TNF-α in the myocardium after reperfusion (TNF-α): 240±30 pg/mg tissue
- tissue level of IL-8 in the myocardium after reperfusion (IL-8): 68±19 pg/mg tissue
- peak value of percent recovery of LVDP after reperfusion ([1]; 10 mg/kg intraperitoneally 10 min before heart excision, 30 min global ischemia at 37° C., 60 min reperfusion, percentage of basal LVDP, mean±SEM, C group 39±6%, p<0.05): 79±5%
- peak value of percent recovery of maximum dP/dt after reperfusion ([1]; 10 mg/kg intraperitoneally 10 min before heart excision, 30 min global ischemia, 60 min reperfusion, percentage of basal maximum dP/dt, mean±SEM, C group 54±7%, p<0.05): 80±4%
- percent recovery of LVDP versus C group over time ([1]; 10 mg/kg intraperitoneally, at 20, 30, 40, 50, and 60 minutes after reperfusion): Significant improvements
- percent recovery of max dP/dt versus C group over time ([1]; 10 mg/kg intraperitoneally, at 30, 40, 50, and 60 minutes after reperfusion): significant improvement
- tissue level of IL-6 in the myocardium after reperfusion (IL-6): 60±7 pg/mg tissue
- CPK leakage of the coronary effluent [2]: 2.9±2.0 IU/60 minutes
